Target: T1, Solute carrier family 12 member 5 (Homo sapiens, UniProt Q9H2X9)
T1 sequence (Q9H2X9 whole entry): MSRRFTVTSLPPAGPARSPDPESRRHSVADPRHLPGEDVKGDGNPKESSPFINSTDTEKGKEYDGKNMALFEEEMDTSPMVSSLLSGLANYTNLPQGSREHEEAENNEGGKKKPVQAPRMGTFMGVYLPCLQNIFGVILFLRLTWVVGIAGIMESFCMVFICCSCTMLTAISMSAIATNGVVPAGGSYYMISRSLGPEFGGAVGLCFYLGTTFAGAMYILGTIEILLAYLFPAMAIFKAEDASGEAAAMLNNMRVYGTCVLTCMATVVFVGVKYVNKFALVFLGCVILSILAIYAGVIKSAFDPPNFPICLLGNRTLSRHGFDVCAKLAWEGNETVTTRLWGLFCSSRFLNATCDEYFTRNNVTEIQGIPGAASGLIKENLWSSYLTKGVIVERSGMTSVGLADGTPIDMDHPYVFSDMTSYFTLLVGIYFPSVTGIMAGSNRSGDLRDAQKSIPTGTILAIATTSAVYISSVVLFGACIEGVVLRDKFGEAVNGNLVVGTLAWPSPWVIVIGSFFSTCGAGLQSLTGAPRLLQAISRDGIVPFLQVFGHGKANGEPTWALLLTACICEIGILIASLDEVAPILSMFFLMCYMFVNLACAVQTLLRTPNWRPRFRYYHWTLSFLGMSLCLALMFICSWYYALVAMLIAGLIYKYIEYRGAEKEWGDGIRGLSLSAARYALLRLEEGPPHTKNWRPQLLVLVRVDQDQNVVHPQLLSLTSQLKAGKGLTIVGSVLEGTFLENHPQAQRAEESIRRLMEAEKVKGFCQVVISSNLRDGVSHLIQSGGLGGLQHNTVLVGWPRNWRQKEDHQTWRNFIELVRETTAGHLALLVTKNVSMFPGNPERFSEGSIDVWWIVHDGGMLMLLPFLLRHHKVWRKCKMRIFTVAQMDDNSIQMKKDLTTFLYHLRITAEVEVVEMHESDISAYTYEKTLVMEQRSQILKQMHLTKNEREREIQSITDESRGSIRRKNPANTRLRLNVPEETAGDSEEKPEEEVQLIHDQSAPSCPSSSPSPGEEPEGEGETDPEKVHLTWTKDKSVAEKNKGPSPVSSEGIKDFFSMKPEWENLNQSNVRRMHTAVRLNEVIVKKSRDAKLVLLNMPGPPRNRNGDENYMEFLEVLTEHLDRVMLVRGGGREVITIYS
Assay: KCC2 modulator potency by thallium flux, dose response, cell-based, HEK293 KCC2, FluoZin-2 fluorescence (AID 1736)
Conditions: not given

Going from `O=C(O)CC/C(=C\c1ccc(N2CCOCC2)c([N+](=O)[O-])c1)c1nc2ccccc2s1` [(E)-4-(1,3-benzothiazol-2-yl)-5-(4-morpholin-4-yl-3-nitro-phenyl)pent-4-enoic acid] to `CC1CCN(C(=O)c2ccc(SCc3ccccc3F)c([N+](=O)[O-])c2)CC1` [1-{4-[(2-fluorobenzyl)thio]-3-nitrobenzoyl}-4-methylpiperidine], the EC50 falls from 82100 µM to 1.94 µM (42000-fold).

Going from `CSCCC(=O)N1CCCC(CNC(=O)c2ccc(-c3ccccc3)cc2)C1` (centres undefined) [MLS000733867] to `Cc1ccc(C(=O)CC=Nc2ccccc2C(N)=O)cc1` [2-[[(E)-3-(4-methylphenyl)-3-oxidanylidene-prop-1-enyl]amino]benzamide], the EC50 rises from 5.16 µM to 7.95 µM (1.5-fold).

Going from `Cc1noc(/C=C/c2ccco2)c1S(=O)(=O)N1CCC(C(=O)N2CCc3ccccc3C2)CC1` [2-{[1-({5-[(E)-2-(2-furyl)vinyl]-3-methylisoxazol-4-yl}sulfonyl)piperidin-4-yl]carbonyl}-1,2,3,4-tetrahydroisoquinoline] to `COc1ccc(S(=O)(=O)N2CCC(C(=O)N3CCc4ccccc4C3)CC2)cc1C` [2-({1-[(4-methoxy-3-methylphenyl)sulfonyl]-4-piperidinyl}carbonyl)-1,2,3,4-tetrahydroisoquinoline], the EC50 rises from 5.35 µM to 14.4 µM (2.7-fold). The first is the more potent here.

`Cc1noc(C)c1S(=O)(=O)N1CCC(C(=O)N2CCN(c3ccc(F)cc3)CC2)CC1` [1-({1-[(3,5-dimethylisoxazol-4-yl)sulfonyl]piperidin-4-yl}carbonyl)-4-(4-fluorophenyl)piperazine] and `CS(=O)(=O)N(CC(=O)N1CCN(c2ccc(F)cc2)CC1)c1ccc(F)c(Cl)c1` [MLS000531433] are within 1.5-fold of each other in EC50: 7.58 µM for the first, 7.63 µM for the second.

First: N#Cc1nc(Cc2cccc3ccccc23)oc1NCCN1CCOCC1 [5-(2-Morpholin-4-yl-ethylamino)-2-naphthalen-1-ylmethyl-oxazole-4-carbonitrile]
Second: Cc1cccc(-c2nc(C[S+]([O-])CC(=O)N3CCc4ccccc4C3)c(C)o2)c1 (centres undefined) [1-(3,4-dihydro-1H-isoquinolin-2-yl)-2-[[5-methyl-2-(3-methylphenyl)-1,3-oxazol-4-yl]methylsulfinyl]ethanone]
The EC50 of the first is 2-fold higher: 10.3 µM for the first, 5.03 µM for the second. The second is the more potent here.

Going from `CCC(CC)NC(=O)CSc1nnc(-c2c[nH]c3ccccc23)o1` [MLS001017505] to `CC1Cc2ccccc2N1C(=O)CSc1nnc(CNc2ccccc2)o1` (centres undefined) [1-(2-Methyl-2,3-dihydro-indol-1-yl)-2-(5-phenylaminomethyl-[1,3,4]oxadiazol-2-ylsulfanyl)-ethanone], the EC50 falls from 334 µM to 18.5 µM (18-fold).

First: O=C(Nc1ccc2oc(-c3ccccc3)nc2c1)c1ccncc1 [MLS000109492]
Second: O=C(CSc1ccc(-c2ccccc2)nn1)c1ccccc1 [1-phenyl-2-(6-phenylpyridazin-3-yl)sulfanyl-ethanone]
The EC50 of the first is 3.8-fold higher: 3.24 µM for the first, 0.862 µM for the second.

Compared with `O=C(/C=C/c1ccco1)N1CCC(Cc2ccccc2)CC1` [(E)-1-(4-benzylpiperidin-1-yl)-3-(furan-2-yl)prop-2-en-1-one], `O=C(CSc1nnc(C2CC2)n1Cc1ccccc1)c1cc2ccccc2o1` [1-(1-benzofuran-2-yl)-2-[(4-benzyl-5-cyclopropyl-1,2,4-triazol-3-yl)sulfanyl]ethanone] is 1.8-fold higher in EC50: 2.93 µM for the first, 5.3 µM for the second. The first is the more potent here.

Going from `Cc1ccc(C)c(C(=O)NC(C)CCc2ccccc2)c1` (centres undefined) [2,5-dimethyl-N-(1-methyl-3-phenyl-propyl)benzamide] to `S=C(NCCc1ccccc1)NN=Cc1cccc(Cl)c1Cl` [1-[(2,3-dichlorobenzylidene)amino]-3-phenethyl-thiourea], the EC50 rises from 3.82 µM to 7.78 µM (2-fold).

Compared with `O=C1OC(c2ccc(O)cc2)(c2ccc(O)cc2)c2ccccc21`, `O=C(OC1CCc2ccccc2C1=O)c1ccccc1O` (centres undefined) [MLS000051417] is 6.2-fold lower in EC50: 3.29 µM for the first, 0.53 µM for the second. The second is the more potent here.

Going from `C=CCn1c(Cc2cccs2)nnc1SCC(=O)c1ccc2ccccc2c1` [1-(2-naphthalenyl)-2-[[4-prop-2-enyl-5-(thiophen-2-ylmethyl)-1,2,4-triazol-3-yl]thio]ethanone] to `Cc1csc(NC(=O)CSc2ccc(-c3ccccc3)nn2)n1` [N-(4-methyl-1,3-thiazol-2-yl)-2-(6-phenylpyridazin-3-yl)sulfanyl-ethanamide], the EC50 falls from 4.99 µM to 0.493 µM (10-fold).

Compared with `Cc1cc(NC(=O)CSc2ccc(-c3ccc(F)cc3)nn2)no1` [2-[6-(4-fluorophenyl)pyridazin-3-yl]sulfanyl-N-(5-methyl-1,2-oxazol-3-yl)acetamide], `Cc1onc(-c2ccccc2Cl)c1C(=O)NC(=S)Nc1ccc(C(C)C)cc1` [3-(2-chlorophenyl)-5-methyl-N-(p-cumenylthiocarbamoyl)isoxazole-4-carboxamide] is 1.6-fold higher in EC50: 0.182 µM for the first, 0.291 µM for the second.

Compared with `CCC(Cc1ccccc1)NC(=O)CN(C)S(=O)(=O)c1ccc2c(c1)c(=O)n(C)c(=O)n2C` (centres undefined) [2-[(1,3-dimethyl-2,4-dioxo-6-quinazolinyl)sulfonyl-methylamino]-N-(1-phenylbutan-2-yl)acetamide], `Cn1c(C(=O)NCCN2CCN(c3ccccc3F)CC2)cc2c(=O)n(C)c3ccccc3c21` [MLS000118132] is 900-fold lower in EC50: 2410 µM for the first, 2.68 µM for the second.

Compared with `O=C(Cn1nnc2c(cnn2-c2ccccc2)c1=O)N1CCN(c2ccccc2F)CC1` [3-[2-[4-(2-fluorophenyl)-1-piperazinyl]-2-oxoethyl]-7-phenyl-4-pyrazolo[3,4-d]triazinone], `O=C(CSc1ncccc1-c1nc2ccccc2[nH]1)N1CCN(c2ccccc2F)CC1` [MLS000033700] is 1.7-fold lower in EC50: 15.6 µM for the first, 9.45 µM for the second.

First: COC(=O)[C@@H](NC(=O)O[C@@H]1C(=O)c2ccc(OC)cc2O[C@H]1c1cccc(C(F)(F)F)c1)C(C)C [(2S)-2-[[(2S,3S)-4-keto-7-methoxy-2-[3-(trifluoromethyl)phenyl]chroman-3-yl]oxycarbonylamino]-3-methyl-butyric acid methyl ester]
Second: COc1ccc(NC(=S)NC(N)=Nc2nc(C)c3ccccc3n2)cc1 [(1E)-1-[amino-[(4-methyl-2-quinazolinyl)amino]methylidene]-3-(4-methoxyphenyl)thiourea]
The EC50 of the first is 17-fold lower: 4.12 µM for the first, 70.5 µM for the second. The first is the more potent here.

Going from `O=C(NCCc1csc(-c2ccccc2)n1)c1cccs1` [MLS000102716] to `c1ccc(-c2csc(N=NCc3ccco3)n2)cc1` [(2-furfurylideneamino)-(4-phenylthiazol-2-yl)amine], the EC50 rises from 7.34 µM to 65 µM (8.9-fold). The first is the more potent here.

Going from `CC(=NNC(=O)c1ccc(Cl)c(Cl)c1)c1ccc(Br)s1` [N-[1-(5-bromo-2-thiophenyl)ethylideneamino]-3,4-dichlorobenzamide] to `CCCCNc1cc(C(=O)O)cc(S(N)(=O)=O)c1Oc1ccccc1` [Fordiuran], the EC50 falls from 0.48 µM to 0.00108 µM (440-fold).

First: CCOc1ccc2nc(Sc3cc(O)n(-c4cccc(OC)c4)c3O)sc2c1 [3-(6-Ethoxy-benzothiazol-2-ylsulfanyl)-1-(3-methoxy-phenyl)-pyrrolidine-2,5-dione]
Second: O=C(NN=Cc1ccc(OCc2ccccc2)cc1)c1cc[n+](Cc2ccccc2)cc1 [1-benzyl-4-({2-[4-(benzyloxy)benzylidene]hydrazino}carbonyl)pyridinium chloride]
The EC50 of the first is 60-fold lower: 9.38 µM for the first, 563 µM for the second.

Work on `Cc1nc2cc(C(F)(F)F)ccc2n1C1CCN(Cc2nnnn2Cc2ccc3c(c2)OCO3)CC1` [1-[1-(1-Benzo[1,3]dioxol-5-ylmethyl-1H-tetrazol-5-ylmethyl)-piperidin-4-yl]-2-methyl-5-trifluoromethyl-1H-benzoimidazole] yielded an EC50 of 16.4 µM.

Same assay, conditions: inactive by the depositor's call

First: CC(C)c1onc(C(=O)NCCc2ccccc2)c1[N+](=O)[O-] [4-nitro-N-(2-phenylethyl)-5-propan-2-yl-1,2-oxazole-3-carboxamide]
Second: O=C(CN1C(=O)NC(Cc2ccccc2)C1=O)NC(=O)NC1CCCCC1 (centres undefined) [2-(4-benzyl-2,5-diketo-imidazolidin-1-yl)-N-(cyclohexylcarbamoyl)acetamide]
The EC50 of the first is 3.4-fold lower: 20.6 µM for the first, 69.9 µM for the second. The first is the more potent here.

First: N#C/C(=C\c1ccc(-c2cccc([N+](=O)[O-])c2)o1)C(=O)Nc1nc(-c2cccs2)cs1 [MLS000402444]
Second: C=CCNC(=O)NC(=O)CSc1nc2cc([N+](=O)[O-])ccc2n1-c1cccc(C(F)(F)F)c1 [2-[5-nitro-1-[3-(trifluoromethyl)phenyl]benzimidazol-2-yl]sulfanyl-N-(prop-2-enylcarbamoyl)acetamide]
The EC50 of the first is 2.1-fold lower: 9.15 µM for the first, 19.2 µM for the second. The first is the more potent here.

`CCCCC(c1nnnn1Cc1ccco1)N1CCN(c2nc3ccccc3s2)CC1` (centres undefined) [2-[4-[1-[1-(2-furanylmethyl)-5-tetrazolyl]pentyl]-1-piperazinyl]-1,3-benzothiazole] and `CCC(C)(C)n1nnnc1C(c1ccc(O)c(OC)c1)N1CCN(c2nc3ccccc3s2)CC1` (centres undefined) [4-[(1-tert-amyltetrazol-5-yl)-[4-(1,3-benzothiazol-2-yl)piperazino]methyl]-2-methoxy-phenol] are within 1.5-fold of each other in EC50: 9.22 µM for the first, 9.05 µM for the second.

Molecule `CCOc1ccc(Nc2nnc(S)s2)cc1` [5-(4-ethoxyanilino)-3H-1,3,4-thiadiazole-2-thione] has an EC50 of 0.0465 µM.

From BindingDB's records for doi:10.7270/Q2Q52N1X (Vanderbilt Screening Center for GPCRs, Ion Channels and …, 2009)
